The record followed here is ChEMBL document CHEMBL5108018, “Discovery of MDM2-p53 and MDM4-p53 protein-protein interactions small molecule dual inhibitors” (Eur J Med Chem, 2022).

Test [1] concerns the target Tumour suppressor p53/oncoprotein Mdm2 (Homo sapiens, UniProt P04637+Q00987). The test can be described thus: Inhibition of MDM2/p53 interaction in human U-87 MG cells preincubated for 10 mins under shaking condition and measured after 1.5 hrs by immuno-enzymatic assay. The format is cell-based.
The target of test [2] is Tumour suppressor protein p53/Mdm4 (Homo sapiens, UniProt O15151+P04637). Description: Inhibition of MDM4/p53 interaction in human SH-SY5Y cells preincubated for 10 mins under shaking condition and measured after 1.5 hrs by immuno-enzymatic assay. The format is cell-based.

Structures are written as SMILES.

Chain of Tumour suppressor protein p53/Mdm4 (P04637 whole entry): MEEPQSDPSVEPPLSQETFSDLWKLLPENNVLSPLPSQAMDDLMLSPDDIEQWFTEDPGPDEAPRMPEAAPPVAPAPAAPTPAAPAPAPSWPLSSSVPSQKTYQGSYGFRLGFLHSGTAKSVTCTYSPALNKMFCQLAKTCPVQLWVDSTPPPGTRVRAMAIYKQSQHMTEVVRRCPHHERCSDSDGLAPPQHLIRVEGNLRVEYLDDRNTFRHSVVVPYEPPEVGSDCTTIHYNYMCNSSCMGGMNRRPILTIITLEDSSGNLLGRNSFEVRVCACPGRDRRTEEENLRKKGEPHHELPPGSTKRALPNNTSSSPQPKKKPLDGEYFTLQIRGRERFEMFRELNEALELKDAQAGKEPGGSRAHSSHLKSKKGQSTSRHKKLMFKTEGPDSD
Chain of Tumour suppressor protein p53/Mdm4 (O15151 whole entry): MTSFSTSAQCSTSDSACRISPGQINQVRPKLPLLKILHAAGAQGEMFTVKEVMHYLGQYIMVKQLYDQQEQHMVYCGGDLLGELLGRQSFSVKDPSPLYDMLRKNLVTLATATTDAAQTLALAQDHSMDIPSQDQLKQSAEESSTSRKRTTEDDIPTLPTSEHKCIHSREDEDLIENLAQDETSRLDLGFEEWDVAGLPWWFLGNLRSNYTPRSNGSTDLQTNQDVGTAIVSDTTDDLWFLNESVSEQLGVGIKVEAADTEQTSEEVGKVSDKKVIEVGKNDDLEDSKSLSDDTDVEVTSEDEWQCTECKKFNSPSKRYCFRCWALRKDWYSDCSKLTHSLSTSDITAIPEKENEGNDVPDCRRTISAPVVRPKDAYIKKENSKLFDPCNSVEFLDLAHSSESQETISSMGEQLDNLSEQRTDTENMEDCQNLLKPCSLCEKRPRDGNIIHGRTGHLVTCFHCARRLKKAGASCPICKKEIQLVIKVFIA
Chain of Tumour suppressor p53/oncoprotein Mdm2 (P04637 whole entry): as the sequence (P04637 whole entry) above
Chain of Tumour suppressor p53/oncoprotein Mdm2 (Q00987 whole entry): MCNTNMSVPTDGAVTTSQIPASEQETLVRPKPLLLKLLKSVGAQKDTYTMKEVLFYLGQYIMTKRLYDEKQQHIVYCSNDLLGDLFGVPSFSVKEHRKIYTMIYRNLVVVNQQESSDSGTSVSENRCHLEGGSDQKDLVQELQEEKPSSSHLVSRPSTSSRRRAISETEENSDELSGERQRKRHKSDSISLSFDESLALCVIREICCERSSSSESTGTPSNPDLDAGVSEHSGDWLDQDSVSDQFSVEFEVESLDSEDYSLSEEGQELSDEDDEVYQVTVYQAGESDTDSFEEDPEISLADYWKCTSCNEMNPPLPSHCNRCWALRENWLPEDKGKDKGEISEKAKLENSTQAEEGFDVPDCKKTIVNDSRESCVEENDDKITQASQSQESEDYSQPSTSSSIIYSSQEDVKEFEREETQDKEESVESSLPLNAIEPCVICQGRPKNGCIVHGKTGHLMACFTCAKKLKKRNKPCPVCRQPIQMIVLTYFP

Take `O=C1Nc2ccc(Br)cc2C12C(c1ccccc1)C(c1ccccc1)=NN2c1ccccc1` (configuration not stated): the IC50 was 144 nM in test [1] and 295 nM in test [2].

The IC50 is the concentration needed to halve the response being measured. Read a high IC50 as weaker potency.
